# Assay results as given in patent publication US20250034520A1, “INCREASING DEVELOPMENTAL POTENTIAL OF HUMAN PREIMPLANTATION EMBRYOS BY REDUCING GENETIC INSTABILITY, ANEUPLOIDIES AND CHROMOSOMAL MOSAICISM” (THE TRUSTEES OF COLUMBIA UNIVERSITY IN THE CITY OF NEW YORK, priority 2022, published 2025).
# Legend:
# human embryos [1] = experiment: nucleation and development of human embryos; type: cell-based
# Excerpt: Cryopreserved human cleavage-stage and blastocyst embryos and unfertilized oocytes were anonymously donated from individuals and couples who provided consent for use in research. Embryos were of good quality and had been cryopreserved for potential clinical use but were then no longer needed and donated for research. The cause of treatment is not disclosed. Range of maternal age of donated embryos is between 27-43. Embryos of both sexes were used, as provided by the unbiased fertilization of oocytes with sperm carrying either a Y or X chromosome. Cleavage stage embryos were thawed using the one-step thaw protocol using Global total with HEPES. Blastocyst stage embryos were thawed using the Quinn's Advantage thaw kit, then exposed to experimental conditions as outlined below. Vitrified embryos were thawed with the ECMPC warming solution set. Embryo culture was performed in Global Total. All experiments were conducted during incubation at 37° C. with 5% CO2 and 20% 02.
# (§1) Embryos, mouse and human, were cultured in Global Total (Life-Global) for the duration of the experiments and with added compounds as outlined below. Incubation in RNA polymerase inhibitors triptolide (1 mM) or alpha amanitin (20 mg/ml) was performed from the 2PN stage (day1) to day3 of human development. Incubation in aphidicolin was performed at 2 mM. […] Mirin was used at a concentration of 50 mM. Olaparib was used to inhibit PARP at a concentration of 10 mM. All experiments were conducted during incubation at 37° C. with 5% CO2 and 19-20% O2. Chemical stock solutions were prepared in DMSO at concentrations at least 1000× higher than the final concentration.
# Following the experimental exposures, mouse and human embryos were fixed in 2% paraformaldehyde (PFA) and 0.25% Triton X-100 in PBS for 10 minutes at room temperature, serially washed in phosphate-buffered solution (PBS) at room temperature, then stored in PBS at 4° C. until staining and imaging. Embryos were placed in 10-20 ml droplets of primary antibody solution within plastic tissue culture dishes covered with mineral oil for 1 hour at room temperature, serially washed (×2) in PBS containing 0.01% Triton X-100 to prevent embryos sticking to oil, then transferred to 10-20 ml secondary antibody solution and Hoechst (dilution 1:500) for 30 minutes. Embryos were then serially washed (×2) and placed in 5 ml droplets of PBS with 0.5% serum albumin in uncoated glass bottom dishes (Mattek) covered with embryo culture oil for imaging. […]
# Embryos were imaged with confocal microscopy using a Zeiss LSM (LSM 710) at a magnification of 63× and the Zeiss Zen software. […] Cell numbers and staining foci numbers were counted manually. […]
# human embryos [2] = experiment: single-cell/single-nuclei sequencing chromosome content analysis, human embryos; type: cell-based
# Description: as §1
# Single cells from blastomeres were collected on the heated stage (Tokai Hit) of an Olympus IX71 inverted microscope equipped with Narishige micromanipulators and a zona pellucida laser (Hamilton-Thorne). Single nuclei were isolated from blastomeres by lysis and dissection of different nuclei using two […] diameter Piezo micropipettes and Holding pipette (Origio). Single embryo cells or nuclei were placed manually in single wells of a 96-well plate containing 9 ml of lysis buffer, prepared as a master mix of 798 ml H2O, 6 ml of 10 mg/mL Proteinase K solution (Sigma-Aldrich), and 96 ml 10× Single Cell Lysis and Fragmentation buffer (Sigma-Aldrich). Single cells/single nuclei were lysed by heating 96-well plates containing single cells/single nuclei at 50° C. for 1 hour, followed by incubation at 99° C. for four minutes using a PCR thermocycler. Single-cell/single-nuclei whole genome amplification (WGA) using degenerate oligo-nucleotide priming PCR (DOP-PCR) was performed using the SEQPLEX Enhanced DNA Amplification Kit (SEQXE, Sigma) according to the manufacturer's instructions. In addition, a modified version of the DOP-PCR protocol that allows inline indexing of WGA DNA was also applied. WGA DNA was subsequently processed for Illumina library sequencing preparation using standard TruSeq indexing methods via the NEBNext Ultra II DNA Library Prep Kit for Illumina (New England Biolabs). NEBNext Multiplex Oligos for Illumina (96 index primers) were used for four amplification cycles. Library DNA was quantified using Qubit dsDNA HS Assay Kit (Invitrogen, Carlsbad, CA, USA) and library size distribution was confirmed using a 2100 Bioanalyzer DNA 1000 Kit (Agilent, Santa Clara, CA, USA). A unimodal curve centered around 300-500 bp was scored as a successful library preparation. Subsequently, 30 mL of each pooled library was sent for sequencing at a concentration of 20 ng/ml. Mutiplex sequencing was performed using Illumina HiSeq 2500 single end indexed run (SR100) while targeting a coverage of approximately 1 million reads per cell/nuclei, sufficient for quantitative genome-wide copy number analysis.
# Analysis of DNA sequencing data was performed as previously described (Baslan et al., 2015) with minor modifications as outlined below. Briefly, multiplex sequencing data were demultiplexed according to unique barcodes with reads assigned to their respective single-cell or single-nuclei. Unique reads were aligned to the reference human and mouse genome builds, hg19 and mm9, respectively. Each genome was partitioned into 5000 bins using a previously described algorithm (Varbin) that corrects for genome sequence mappability (Baslan et al., 2012; Navin et al., 2011). Uniquely mapped reads were sorted, indexed and subsequently counted within the partitioned genomic bins. For single-cell copy number inference, read count data were normalized genome-wide followed by CBS segmentation (Olshen et al., 2004) and transformed into integer copy number states using a least-squares fit approach (Baslan et al., 2015).
# Copy number inference from single-nuclei sequencing data was performed similarly with the exception that bin read counts were initially processed using Kernel Density Estimation (KDE) resulting in two primary densities. […]
# [3] = aphidicolin and G2 checkpoint kinase inhibitor at 15.5 h
compound,measurement,setting,value
C[C@@]1(CO)[C@H](O)CC[C@@]2(C)[C@H]1CC[C@H]1C[C@@H]3C[C@@]12CC[C@]3(O)CO [aphidicolin],formation of multinucleate cells,"human embryos [1]; 6 parthenogenetically activated embryos, aphidicolin and G2 checkpoint kinase inhibitor at 15.5 h",uniformly resulting in the formation of multinucleate cells
same,failure to polarize chromosomes in the nucleus,human embryos [1]; aphidicolin-treated human parthenotes,16/17
same,chromosomal breaks identified,"human embryos [2]; 4 2PN zygotes, aphidicolin and CHK1 inhibitor at 18 h post ICSI",7
same,aneuploidy,human embryos [2]; addition of aphidicolin to CHK1 inhibition in G2 phase,further amplified
same,"chromosomes with one or more segmental copy-number transitions, share",human embryos [2]; [3],27%
same,"independent break points per embryo, average",human embryos [2]; [3],51
same,"whole-chromosome losses, share of aneuploid chromosomes in micronuclei",human embryos [2]; [3],73%
same,total break sites,"human embryos [2]; aphidicolin and G2 checkpoint kinase inhibitor at 15.5 h, 21 micronuclei from 4 zygotes",331
same,human embryos aneuploid,human embryos [2]; combined aphidicolin exposure and G2 checkpoint inhibition,all
